One test concerns the target Kallikrein-1 (Homo sapiens, UniProt P06870). As to the kind of experiment: (§1) In Vitro Inhibition Assay: KLK1 inhibitory activity in vitro was determined using standard published methods (see e.g. Johansen et al., Int. J. Tiss. Reac. 1986, 8, 185; Shori et al., Biochem. Pharmacol., 1992, 43, 1209; Stürzebecher et al., Biol. Chem. Hoppe-Seyler, 1992, 373, 1025). Human KLK1 (Callbiochem) was incubated at 37° C. with the fluorogenic substrate H-DVal-Leu-Arg-AFC and various concentrations of the test compound. Residual enzyme activity (initial rate of reaction) was determined by measuring the change in […] at 410 nm and the IC50 value for the test compound was determined.

Another test has as its target Plasma kallikrein (Homo sapiens, UniProt P03952). Described as §1, with “Plasma kallikrein” for “KLK1”, “Stiirzebecher” for “Stürzebecher”, “plasma kallikrein (Protogen)” for “KLK1 (Callbiochem)”, “H-DPro-Phe-Arg-AFC” for “H-DVal-Leu-Arg-AFC”. In kind it is cell-free.
In another test the target is T1, Coagulation factor XII (Homo sapiens, UniProt P00748).
T1 sequence (P00748 whole entry): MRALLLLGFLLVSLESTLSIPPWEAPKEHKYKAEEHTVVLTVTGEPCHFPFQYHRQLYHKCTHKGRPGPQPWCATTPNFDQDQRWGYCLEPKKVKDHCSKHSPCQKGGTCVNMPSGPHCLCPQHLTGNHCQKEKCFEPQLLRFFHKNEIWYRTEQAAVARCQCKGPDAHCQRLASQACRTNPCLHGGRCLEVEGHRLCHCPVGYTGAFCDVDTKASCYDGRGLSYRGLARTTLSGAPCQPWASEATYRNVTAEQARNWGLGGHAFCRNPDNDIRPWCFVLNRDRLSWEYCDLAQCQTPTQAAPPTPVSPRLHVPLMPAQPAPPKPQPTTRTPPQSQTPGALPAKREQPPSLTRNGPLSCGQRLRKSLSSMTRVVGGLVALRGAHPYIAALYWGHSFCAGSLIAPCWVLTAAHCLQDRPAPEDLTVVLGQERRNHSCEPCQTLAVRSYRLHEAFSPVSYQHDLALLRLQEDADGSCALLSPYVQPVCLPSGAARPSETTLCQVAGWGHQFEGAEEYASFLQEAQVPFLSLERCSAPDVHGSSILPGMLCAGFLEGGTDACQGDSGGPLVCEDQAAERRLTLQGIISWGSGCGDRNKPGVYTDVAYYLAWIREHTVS
As to the kind of experiment: Enzyme Assay: Human serine protease enzymes plasmin, thrombin, trypsin, Factor Xa and Factor XIIa were assayed for enzymatic activity using an appropriate fluorogenic substrate. Protease activity was measured by monitoring the accumulation of liberated fluorescence from the substrate over 5 minutes. The linear rate of fluorescence increase per minute was expressed as percentage (%) activity. The ….

Some results are limits rather than exact numbers.

Chain of Kallikrein-1 (P06870 whole entry): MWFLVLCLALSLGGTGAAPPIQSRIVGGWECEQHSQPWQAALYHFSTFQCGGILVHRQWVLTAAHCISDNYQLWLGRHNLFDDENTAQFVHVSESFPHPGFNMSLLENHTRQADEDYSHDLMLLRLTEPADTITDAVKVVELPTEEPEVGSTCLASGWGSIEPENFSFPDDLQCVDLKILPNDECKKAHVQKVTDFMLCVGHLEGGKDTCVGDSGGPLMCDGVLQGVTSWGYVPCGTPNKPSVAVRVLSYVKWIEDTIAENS
Chain of Plasma kallikrein (P03952 20-390 limits assumed): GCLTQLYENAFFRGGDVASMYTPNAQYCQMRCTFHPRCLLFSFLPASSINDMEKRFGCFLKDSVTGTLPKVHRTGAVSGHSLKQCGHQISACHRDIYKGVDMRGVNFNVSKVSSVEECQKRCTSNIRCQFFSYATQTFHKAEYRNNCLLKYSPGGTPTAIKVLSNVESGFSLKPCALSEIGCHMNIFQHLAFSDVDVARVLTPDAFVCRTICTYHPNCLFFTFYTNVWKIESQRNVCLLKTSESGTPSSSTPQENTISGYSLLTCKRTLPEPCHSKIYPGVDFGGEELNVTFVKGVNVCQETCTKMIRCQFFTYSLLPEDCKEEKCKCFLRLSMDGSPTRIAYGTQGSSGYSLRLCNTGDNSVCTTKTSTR
Chain of Plasma kallikrein (P03952 391-638 limits assumed): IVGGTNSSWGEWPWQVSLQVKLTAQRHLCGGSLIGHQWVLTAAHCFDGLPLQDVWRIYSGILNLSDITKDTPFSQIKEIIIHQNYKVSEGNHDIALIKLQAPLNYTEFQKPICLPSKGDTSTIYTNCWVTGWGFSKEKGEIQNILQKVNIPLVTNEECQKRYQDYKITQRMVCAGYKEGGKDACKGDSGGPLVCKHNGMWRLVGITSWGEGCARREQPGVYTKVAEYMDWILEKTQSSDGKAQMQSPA
Description for Coagulation factor XII: Enzyme Assay: Human serine protease enzymes plasmin, thrombin, trypsin, Factor Xa and Factor XIIa were assayed for enzymatic activity using an appropriate fluorogenic substrate. Protease activity was measured by monitoring the accumulation of liberated fluorescence from the substrate over 5 minutes. The linear rate of fluorescence increase per minute was expressed as percentage (%) activity. The Km for the cleavage of each substrate was determined by standard transformation of the Michaelis-Menten equation.

By IC50 is commonly meant the concentration at which inhibition is half-maximal. `CCOc1ccc(C[C@@H](NC(=O)c2ccc(C)cc2)C(=O)N[C@@H](Cc2ccccc2)C(=O)NCc2ccc(CN)cc2)cc1`: the IC50 on Kallikrein-1 is > 10000 nM; on Plasma kallikrein, 32 nM; on Coagulation factor XII it was > 10000 nM.
As to `CCCOc1ccc(C[C@@H](NC(=O)c2ccccc2)C(=O)N[C@@H](Cc2ccccc2)C(=O)NCc2ccc(CN)cc2)cc1`, the IC50 against Kallikrein-1 is 9500 nM; against Plasma kallikrein, 40 nM.
`CCOc1ccc(C[C@@H](NC(=O)c2ccccc2)C(=O)N[C@@H](Cc2c[nH]c3ccccc23)C(=O)NCc2ccc(CN)cc2)cc1`: the IC50 is > 10000 nM against Kallikrein-1 and 28 nM against Plasma kallikrein.
As for `CCOc1ccc(C[C@@H](NC(=O)c2ccc(OC)cc2)C(=O)N[C@@H](Cc2ccccc2)C(=O)NCc2ccc(CN)cc2)cc1`, the IC50 is > 10000 nM at Kallikrein-1, 46 nM on Plasma kallikrein and > 10000 nM at Coagulation factor XII.
Regarding `NCc1ccc(CNC(=O)[C@H](Cc2ccccc2)NC(=O)[C@@H](Cc2ccc(OCc3ccccc3)cc2)NC(=O)c2ccccc2)cc1`, the IC50 on Kallikrein-1 was > 10000 nM; on Plasma kallikrein, 1210 nM.
In the same order, the values of `NCc1ccc(CNC(=O)[C@H](Cc2ccccc2)NC(=O)[C@H](N)CC2CCCCC2)cc1` are > 1000 nM and 740 nM.

The values are drawn from ChEMBL document CHEMBL3886459, “Benzylamine derivatives as inhibitors of plasma kallikrein” (2016).
